{
  "source": "patent US20250025440A1",
  "about": "“COMPOSITIONS AND METHODS FOR MANAGEMENT OF HUMAN PAPILLOMA VIRUS-ASSOCIATED CANCERS” (LOMA LINDA UNIVERSITY, priority 2021, published 2025)",
  "type_in_all_cases": "cell-based",
  "key": {"[1]": {"test_system": "SCC47 and SCC19", "assay": "Apoptosis analysis after irradiation (flow cytometry)", "experimental": "Kinetics of G2-M arrest when SCC47 and SCC19 are irradiated with or without GA-OH. Cells were treated with radiation (4Gy) followed by GA-OH before cell cycle analysis was performed using […] flow cytometry assay after 24 hours. FIGS. 17A-17B are graphical representations of the kinetics of G2-M arrest when SCC47 and SCC19 are irradiated and followed by treatment with control or with GA-OH, as measured by flow cytometry assays after 24 hours. Cells are arrested to the same extent in the short term (first 12 hours) but over extended periods, SCC19 cells exit the G2-M stage quicker. In the HPV^+ but not HPV^− line, the addition of GA-OH to the radiation protocol delays the exit from the exit the G2-M stage at 24 hours as compared to radiation alone. Apoptosis analysis of SCC47 and SCC19 was performed after irradiation and followed by treatment with control or with GA-OH, as measured by flow cytometry assays after 24 hours. FIGS. 18A-18B are graphical representations of the apoptotic analysis of SCC47 and SCC19 after irradiation with or without GA-OH after 24 hours, as measured by flow cytometry assays. Radiation induces minimal apoptosis on its own."}, "[2]": {"test_system": "HPV+ (SCC47, SCC090, SCC104, SCC152) and HPV- (SCC19, SCC29, SCC49, SCC84) HNSCC cell lines", "assay": "MTT cell viability, HNSCC panel", "experimental": "While SAR studies using the SCC104 cell line provided evidence of the activity of the analogs, further studies were conducted to assess not just the potency, but also the selectivity. As a step towards that goal, the efficacy of GA-OH was evaluated in a panel containing both HPV^+ and HPV^− HNSCC cell lines using MTT cell viability assays. Four HPV^+ cell lines (SCC47, SCC090, SCC104, SCC152) and four HPV^− cell lines (SCC19, SCC29, SCC49, SCC84) were utilized. GA-OH behaved dose dependently in cell lines both with or without HPV. […] FIGS. 7A-7C are graphical representations of the sensitivity of HPV^+ cell lines and HPV^− cell lines to GA-OH-mediated growth inhibition. FIG. 7A is a graphical representation of the cell growth inhibition of HNSCC HPV^+ and HPV^− cell lines by GA-OH (+ and closed shapes represent HPV^+ cell lines and − and open shapes the HPV^− cell lines). […] These cells were good controls, as HPV is an established causative agent in CC carcinogenesis. Two HPV^+ cell lines, SiHa and CaSki were selected as the positive controls and the Saos-2 cell line was used as an HPV-negative control. […] FIG. 7B is a graphical representation of the cell growth inhibition of cervical cancer HPV^+ and HPV^− cell lines by GA-OH. HPV^+ cell lines display higher sensitivity than do HPV^− cell lines as shown by the leftwards shift of the HPV^+ curves (SCC47, 90, 104, 152 in FIG. 7A and SiHa and CaSki in FIG. 7B).\nAll working concentrations were diluted in PBS to the desired concentration before use. To test the effect of gambogic acid and/or its derivatives on cell viability, all cell lines were seeded at 2×10^4 per well in 96-well plates and allowed to adhere overnight. Various concentrations of the analogues were added and the cells incubated at 37° C. for 24 hr. Viability was then measured using the MTT assay, performed as described previously. […] Cell viability and potency were assessed from % inhibition relative to the vehicle control, and IC50 dose curves were generated using GraphPad Prism."}, "[3]": {"test_system": "HPV+ cell lines (SCC090, SCC104, SiHa)", "assay": "Caspase 3/7 activity Glo assay", "details": "0.75 μM, 24 hours", "experimental": "(§1) These findings were then confirmed by conducting a Caspase 3/7 activity Glo assay, which is a surrogate for apoptotic induction. Three HPV^+ cell lines (SCC090, SCC104, SiHa) and two HPV^− cell lines (SCC19, SCC84) were assessed for activity of caspases 3 and 7, and thus for apoptosis activity. […] FIG. 8B is a graphical representation of the Caspase 3/7 activity of gambogic acid in various HPV+ and HPV− cell lines. These cell lines were seeded in 96 well plates and treated with 0.75 uM GA-OH. Caspase 3/7 activity was measured after 24 hours. HPV^+ cell lines show high levels of Caspase 3/7 activity. […] FIG. 10 is a graphical representation of the cell viability as measured by MTT, when three HPV^+ cell lines (SCC090, SCC104, SiHa) and two HPV^− cell lines (SCC19, SCC84) were treated with gambogic acid.\n(§2) Cells were seeded into white walled 96-well plates at 2×10^4 cells per well in 100 μL media and incubated overnight. GA-OH (0.75 μM) and vehicle were then added and incubated at 37° C. for 24 hr. Caspase 3/7 activity was measured using the Caspase 3/7 Glo kit (Promega, Fitchburg, WI, USA) following the manufacturer's instructions. Briefly, room temperature-equilibrated Caspase-Glo reagent was added (Promega) to each well. […] After a 2-hr incubation, luminescence was measured using a plate-reading fluorimeter (Flx800, Bio-Tek Instrument Co., Winooski, VT, USA). […]"}, "[4]": {"test_system": "HPV- cell lines (SCC19, SCC84)", "assay": "Caspase 3/7 activity Glo assay", "details": "0.75 μM, 24 hours", "experimental": "as §1, §2"}, "[5]": {"test_system": "SCC47 (HPV+)", "assay": "Cell cycle analysis after irradiation (PI flow cytometry)", "details": "SCC47, radiation (4Gy) followed by GA-OH, 24 hours", "experimental": "Cells were treated with radiation (4Gy) followed by GA-OH before cell cycle analysis was performed using propidium iodide (PI) flow cytometry assay after 24 hours. FIGS. 15A-15B are graphical representations of the cell cycle analysis of SCC47 and SCC19 cell lines after irradiation and followed by treatment with control or with GA-OH, as measured by flow cytometry assays after 24 hours. In both cell lines, G2-M is the most affected stage of cell cycle and there is increase in G2-M arrested cells. The HPV^+ cell line—SCC47 has a higher proportion of cells that are still arrested in G2-M phase after 24 hours compared to the HPV^− cell line—SCC19. FIGS. 16A-16B are graphical representations of the fraction of G2-M arrested cells in SCC47 and SCC19 lines after irradiation and followed by treatment with control or with GA-OH, as measured by flow cytometry assays after 24 hours. […]\nKinetics of G2-M arrest when SCC47 and SCC19 are irradiated with or without GA-OH. […] FIGS. 17A-17B are graphical representations of the kinetics of G2-M arrest when SCC47 and SCC19 are irradiated and followed by treatment with control or with GA-OH, as measured by flow cytometry assays after 24 hours. […] Apoptosis analysis of SCC47 and SCC19 was performed after irradiation and followed by treatment with control or with GA-OH, as measured by flow cytometry assays after 24 hours. […]"}},
  "data": [
    {"substance": "30-hydroxygambogic acid [GA-OH]", "values": [
      {"measurement": "apoptosis, agent alone", "setting": "[1]; 24 hours", "value": "appreciable apoptosis"},
      {"measurement": "apoptosis, combination with radiation", "setting": "[1]; SCC47 compared to SCC19, 24 hours", "value": "greater apoptosis and at a greater rate"},
      {"measurement": "potency and selectivity for HPV+ versus HPV- cells", "setting": "[2]", "value": "more potent and selective"},
      {"measurement": "cell growth inhibition, sensitivity of HPV+ versus HPV- cell lines", "setting": "[2]; MTT", "value": "displayed higher sensitivity"},
      {"measurement": "Caspase 3/7 activity (apoptosis induction)", "setting": "[3]", "value": "Significant apoptosis induction"},
      {"measurement": "Caspase 3/7 activity (apoptosis induction)", "setting": "[4]", "value": "little to no apoptosis activity"},
      {"measurement": "G2-M arrest", "setting": "[5]", "value": "increased arrest at 24 hours as compared to radiation alone"}
    ]}
  ]
}
